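Tested at 5 concentrations; 48 h exposure; 96-well plates; endpoints linearly interpolated, else capped at highest concentration. Abbreviation: GI50, concentration required for 50% inhibition of growth.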 Activity calls are given as the source filed them. Cut-off read from the data, not from the text of the source: active = GI50 up to about 1.1 µM and inactive = higher.
Legend:
Assay in all cases: inhibition of tumour cell growth, NCI panel, 48 h
RPMI-8226 = system: RPMI-8226
OVCAR-3 = system: OVCAR-3
LOX IMVI = system: LOX IMVI
786-0 = system: 786-0
OVCAR-8 = system: OVCAR-8
SF-295 = system: SF-295
KM12 = system: KM12
NCI-H522 = system: NCI-H522
HCT-15 = system: HCT-15
UACC-257 = system: UACC-257
SK-MEL-28 = system: SK-MEL-28
M14 = system: M14
CAKI-1 = system: CAKI-1
TK-10 = system: TK-10
COLO 205 = system: COLO 205
UO-31 = system: UO-31
NCI-H226 = system: NCI-H226

| SMILES | GI50 (RPMI-8226) | GI50 (OVCAR-3) | GI50 (LOX IMVI) | GI50 (786-0) | GI50 (OVCAR-8) | GI50 (SF-295) | GI50 (KM12) | GI50 (NCI-H522) | GI50 (HCT-15) [µM] | GI50 (UACC-257) | GI50 (SK-MEL-28) | GI50 (M14) | GI50 (CAKI-1) | GI50 (TK-10) | GI50 (COLO 205) | GI50 (UO-31) | GI50 (NCI-H226) |
| --- | --- | --- | --- | --- | --- | --- | --- | --- | --- | --- | --- | --- | --- | --- | --- | --- | --- |
| Cn1ccnc1C(c1nccn1C)C(C)(C)[N+](=O)[O-] | > 100 µM (inactive) | > 100 µM (inactive) | > 100 µM (inactive) | > 100 µM (inactive) | > 100 µM (inactive) | > 100 µM (inactive) | > 100 µM (inactive) | > 100 µM (inactive) | > 100 | > 100 µM (inactive) | > 100 µM (inactive) | > 100 µM (inactive) | > 100 µM (inactive) | > 100 µM (inactive) | > 100 µM (inactive) | – | – |
| Cc1ccc(-c2nnc(SCC(=O)O)[nH]2)cc1 | > 100 µM (inactive) | > 100 µM (inactive) | – | > 100 µM (inactive) | > 100 µM (inactive) | > 100 µM (inactive) | > 100 µM (inactive) | > 100 µM (inactive) | > 100 | > 100 µM (inactive) | > 100 µM (inactive) | > 100 µM (inactive) | > 100 µM (inactive) | > 100 µM (inactive) | > 100 µM (inactive) | > 100 µM (inactive) | > 100 µM (inactive) |
| COC(=O)/C(C#N)=C1\NC(=O)c2ccccc21 | > 100 µM (inactive) | > 100 µM (inactive) | > 100 µM (inactive) | > 100 µM (inactive) | > 100 µM (inactive) | > 100 µM (inactive) | > 100 µM (inactive) | > 100 µM (inactive) | > 100 | > 100 µM (inactive) | > 100 µM (inactive) | > 100 µM (inactive) | – | > 100 µM (inactive) | > 100 µM (inactive) | > 100 µM (inactive) | > 100 µM (inactive) |
| CCCCCOc1ccc(/C=N\c2ccc(CCc3ccc(/N=C/c4ccc(OCCCCC)cc4)cc3)cc2)cc1 | > 100 µM (inactive) | > 100 µM (inactive) | > 100 µM (inactive) | – | > 100 µM (inactive) | > 100 µM (inactive) | > 100 µM (inactive) | > 100 µM (inactive) | > 100 | > 100 µM (inactive) | > 100 µM (inactive) | – | – | – | > 100 µM (inactive) | > 100 µM (inactive) | > 100 µM (inactive) |
| O=C(CCN1CCCCC1)C(=Cc1ccccc1)C(=O)CCN1CCCCC1 | 20.8 µM (inactive) | 3.74 µM (inactive) | 38.7 µM (inactive) | 7.28 µM (inactive) | 25.1 µM (inactive) | > 100 µM (inactive) | > 64.7 µM (inactive) | 1.23 µM (inactive) | 64.9 | 6.75 µM (inactive) | > 10 µM (inactive) | 5.18 µM (inactive) | 2.45 µM (inactive) | – | 27.7 µM (inactive) | > 100 µM (inactive) | > 100 µM (inactive) |
| O=C1c2ccccc2C(=O)N1CC#CCO | – | > 100 µM (inactive) | – | > 100 µM (inactive) | > 100 µM (inactive) | > 100 µM (inactive) | > 100 µM (inactive) | > 100 µM (inactive) | > 100 | > 100 µM (inactive) | > 100 µM (inactive) | > 100 µM (inactive) | > 100 µM (inactive) | > 100 µM (inactive) | – | > 100 µM (inactive) | > 100 µM (inactive) |
| Cn1cnc([N+](=O)[O-])c1Sc1nc2ccccc2[nH]1 | 15.5 µM (inactive) | 31.9 µM (inactive) | 22.7 µM (inactive) | 41.1 µM (inactive) | 11.7 µM (inactive) | > 100 µM (inactive) | 19.5 µM (inactive) | – | 11.1 | 15.1 µM (inactive) | 13.1 µM (inactive) | 24.2 µM (inactive) | 3.68 µM (inactive) | 19.3 µM (inactive) | 10.4 µM (inactive) | 19.9 µM (inactive) | 28.7 µM (inactive) |
| CC(C)=CC(=O)CC(=O)C(=O)Nc1ccc(Cl)c(Cl)c1 | > 100 µM (inactive) | > 100 µM (inactive) | – | > 100 µM (inactive) | > 100 µM (inactive) | > 100 µM (inactive) | > 100 µM (inactive) | > 100 µM (inactive) | > 100 | > 100 µM (inactive) | > 100 µM (inactive) | > 100 µM (inactive) | – | > 100 µM (inactive) | > 100 µM (inactive) | > 100 µM (inactive) | > 100 µM (inactive) |
| Cn1c(=O)c2nc(NCCO)cnc2n(C)c1=O | 66.4 µM (inactive) | 23.3 µM (inactive) | – | – | > 100 µM (inactive) | 45.3 µM (inactive) | 27.2 µM (inactive) | 21.5 µM (inactive) | 85.9 | > 100 µM (inactive) | > 100 µM (inactive) | 68.2 µM (inactive) | 95.5 µM (inactive) | > 100 µM (inactive) | > 100 µM (inactive) | 48.9 µM (inactive) | – |
| CCOC(=O)COc1ccc(OC)c2c1C(=O)CCC2 | > 100 µM (inactive) | > 100 µM (inactive) | > 100 µM (inactive) | – | > 100 µM (inactive) | > 100 µM (inactive) | – | – | > 100 | > 100 µM (inactive) | > 100 µM (inactive) | > 100 µM (inactive) | – | > 100 µM (inactive) | > 100 µM (inactive) | – | – |
